Earlier results, collected in patent US20030040489A1, “Process for producing l-arabinose, l-arabinose-containing enzymatically processed products, diet foods, diabetic diet foods and fruit or vegetable juices and process for producting the same” (priority 1999, published 2003).

Test system: disaccharide-decomposing enzymes (maltase, sucrase, etc.)
Settings: enzymes of duodenal and small intestinal mucosae

## O=C[C@H](O)[C@@H](O)[C@@H](O)CO [L-arabinose]
  mode of inhibition of disaccharide-decomposing enzymes: uncompetitively inhibits
